Patent US20040202652A1, “Methods and compositions for control of bone formation via modulation of leptin activity” (Baylor College of Medicine, priority 1999, published 2004)
Entries after “also recorded” stand apart in the source; their conditions may differ.

Key:
[1] = tested on: ob/ob mice; experiment: 17 β-estradiol pellet treatment to correct hypogonadism of ob/ob mice; type: in vivo
Procedure: (§1) Histologic analysis was performed on undecalcified sections stained with the von Kossa reagent and counterstained with Kernechtrot. In 3 and 6 month-old mice the presence of many more thick trabeculae in the bones of ob/ob mice compared to those of wild-type mice was observed (FIG. 1B). The cortical bone was not affected. Histomorphometric quantification according to standard techniques were performed (Parfitt et al., 1987, J Bone Min Res 2, 595-610) using the Osteomeasure Analysis System (Osteometrics, Atlanta). Statistical differences between groups (n=4 to 6) were assessed by Student's test. […] The functional consequences of this increase in bone mass were analyzed by comparing the biomechanical properties of long bones of 6 month-old ob/ob mice, wild-type mice, and wild-type mice that have been ovariectomized (wild-type-ovx) for 4 months to mimic the hypogonadic state of the ob/ob mice. An assay in which femora were tested to failure by three-point bending on a servo-hydrolic testing machine (Zwick GmbH & Co.) at a constant displacement rate of 10 mm/min was used to determine failure load, which is a measure of the strength of the bones. […] Analysis of the bones of the db/db mice that have an inactivating mutation of the leptin receptor was also performed (Tartaglia et al., 1995, Cell 83, 1263-1271). Like the ob/ob mice, the db/db mice are obese and hypogonadic. There was an increase in the number of trabeculae in both long bones and vertebrae similar to that observed in ob/ob mice (FIG. IE) resulting in a 3-fold increase in bone volume compared to wild-type mice (FIG. 1F).
Nevertheless, to address this point more thoroughly the hypogonadism of the ob/ob mice was exploited. Hypogonadism normally leads to an increase in osteoclasts number and in bone resorptive activity. Thus, if the osteoclasts of the ob/ob mice were functional, correcting the hypogonadism of these mice should decrease their rate of bone resorption by diminishing the number of osteoclasts and thereby should further increase their bone mass. On the other hand, if the osteoclasts of the ob/ob mice were not functioning properly, correcting their hypogonadism should not affect the severity of their high bone mass phenotype. To determine which of these two possibilities was correct, 17 β-estradiol or placebo pellets (Innovative Research of America) were implanted subcutaneously in 2-month-old female ob/ob mice to maintain a serum concentration of 250 pg/mL. These animals were analyzed after a 3-month treatment period.

[2] = tested on: ob/ob mice; experiment: intracerebroventricular infusion of leptin in ob/ob mice, bone histology and histomorphometry; type: in vivo; settings: ovariectomized ob/ob mice, third ventricle, 8 ng/hr, 28 days, versus PBS
Procedure: as §1
The increase in bone mass could be due to an increase in osteoblastic bone formation, to a decrease in osteoclastic bone resorption, or to a combination of both abnormalities. To study osteoblast function in vivo, the rate of bone formation was quantified following double labeling with calcein, a marker of newly formed bone (FIG. 3A) as described (Ducy et al., 1999, Genes Dev 13, 1025-1036). Calcein was injected twice at 8 day intervals and animals were sacrificed two days later. In 3 month-old, and 6 month-old ob/ob mice there was a 70% and 60%, respectively, increase of the bone formation rate compared to the one of wild-type littermates (FIG. 3B).
Lastly, the issue of whether leptin binding to its hypothalamic receptor could correct the high bone mass phenotype of the ob/ob mice as it can rescue their obesity phenotype was addressed. To that end pumps delivering either PBS or leptin (8 ng/hr) in the third ventricle of ob/ob mice were inserted as follows. Animals were anesthetized with avertin and placed on a stereotaxic instrument (Stoelting). The calvaria was exposed and a 0.7 mm hole was drilled upon bregma. A 28-gauge cannula (Brain infusion kit U, Alza) was implanted into the third ventricle according to the following coordinates: midline, −0.3 AP, 3 mm ventral (0 point bregma). The cannula was secured to the skull with cyanoacrylate, and attached with Tygon tubing to an osmotic pump (Alza) placed in the dorsal subcutaneous space of the animal. The rate of delivery was 0.25:1/hour (8 ng/hr of leptin (Sigma)) or PBS for 28 days. The dosage has been previously shown to have no effect when administered systemically (Halaas et al., 1997, Proc Nati Acad Sci USA 94, 8878-8883). […]

[3] = 8 ng/hr dosage, systemic; cited from earlier work
[4] = tested on: Tis11 and c-fos genes; experiment: Northern blot analysis of immediate early gene expression in primary osteoblast cultures; type: cell-based, mice; settings: 20 min treatment
Procedure: (§2) Expression of leptin in osteoblasts was studied in subconfluent primary osteoblast cultures from wild-type mice which were maintained for 4 days in 10% FBS mineralization medium and then subsequently switched to 0.5% for 2 days and replaced daily. Medium was replaced 2 hours before a 20 min treatment with 80 ng/mL leptin (Sigma) or 40 ng/mL Oncostatin M (R&D Diagnostics) or vehicle. RNA extractions were performed using Triazol (Gibco). Northern blots were performed with 15 μg of total RNA according to methods well known in the art.
The phosphorylation of Stat3, a downstream effector of leptin signaling in its target cells (Tartaglia et al., 1995, Cell 83, 1263-1271; Baumann et al., 1996, Proc Natl Acad Sci USA 93, 8374-8378; Ghilardi et al., 1996, Proc Nati Acad Sci USA 93, 6231-6235; Vaisse et al., 1996, Nat Genet 14, 95-97), was monitored, in addition to the expression of two immediate early genes whose transcription is increased following leptin treatment of target cells (Elmquist et al., 1997, Endocrinology 138, 839-842). As a positive control oncostatin-M that induces Stat3 phosphorylation and activates the expression of the same two immediate early genes in osteoblasts (Levy et al., 1996, Endocrinology 137, 1159-1165) was utilized. Western blot analysis was performed to determine Stat3 phosphorylation as follows. […]

[5] = serum leptin radioimmunoassay in centrally infused ob/ob mice; type: in vivo; settings: after intracerebroventricular infusion, 8 ng/hr, 28 days
Procedure: The coexistence of a high bone mass phenotype and of hypogonadism was so exceptional that it raised the hypothesis that bone resorption might be defective in these mice. The increased urinary elimination of deoxypyridinoline crosslinks (Dpd), a biochemical marker of bone resorption (Eyre et al., 1988, Biochem 252, 494-500), in the ob/ob mice argued against this hypothesis (wild-type: 10.5±2.5 nM Dpd/mM creatinine; ob/ob: 24.0 b 4.0 nM Dpd/mM creatinine). Deoxypyridinoline crosslinks were measured in morning urines using the Pyrilinks-D immunoassay kit (Metra Biosystem). Creatinine values were used for standardization between samples (Creatinine kit, Metra Biosystem). Circulating concentration of […] and leptin were quantified by radioimmunoassays, using the third generation estradiol kit (Diagnostic system laboratories) and the mouse leptin RIA kit (Linco), respectively. […] Coadministration of an estrogen analog with an Ob or ObR inhibitor further increases the high bone mass phenotype.
Lastly, the issue of whether leptin binding to its hypothalamic receptor could correct the high bone mass phenotype of the ob/ob mice as it can rescue their obesity phenotype was addressed. […]

[6] = tested on: primary osteoblast cultures from wild-type mice; experiment: long-term leptin treatment of primary osteoblast cultures (van Gieson and von Kossa staining); type: cell-based; settings: 1.2 μg/mL for 5 days, versus control (vehicle) cultures
Procedure: To determine whether or not leptin could transduce its signal in osteoblasts, serum-starved primary osteoblasts isolated from wild-type mice were treated with leptin. Primary osteoblast cultures from calvaria of newborn wild-type or db/db mice were established as previously described (Ducy et al., 1999, Genes Dev 13, 1025-1036) and maintained in mineralization medium (αMEMI 0.1 mg/mL ascorbic acid; 5 mM […]) supplemented with 10% […]. Cultures of mutant cells were maintained in this medium for 15 days before analysis. Cultures derived from wild-type mice were maintained for 10 days in this medium then the percentage of serum was reduced to 0.5% and the medium supplemented with 1.2 μg/mL leptin (Sigma) or vehicle for 5 days.
Finally, the effect of a long-term leptin treatment of primary osteoblast cultures from wild-type mice on extracellular matrix synthesis and bone matrix mineralization was determined. The presence of a collagen-rich extracellular matrix and of mineralization nodules was assessed by whole-mount staining of the cultures by the van Gieson and von Kossa reagent, respectively. No difference was observed when assessing collagen synthesis or mineralization nodule formation between control and leptin-treated cultures (FIG. 5E).

[7] = tested on: Stat3 phosphorylation; experiment: Western blot analysis of Stat3 phosphorylation in primary osteoblast cultures; type: cell-based, mice
Procedure: as §2
To determine whether or not leptin could transduce its signal in osteoblasts, serum-starved primary osteoblasts isolated from wild-type mice were treated with leptin. […]
The phosphorylation of Stat3, a downstream effector of leptin signaling in its target cells (Tartaglia et al., 1995, Cell 83, 1263-1271; Baumann et al., 1996, Proc Natl Acad Sci USA 93, 8374-8378; Ghilardi et al., 1996, Proc Nati Acad Sci USA 93, 6231-6235; Vaisse et al., 1996, Nat Genet 14, 95-97), was monitored, in addition to the expression of two immediate early genes whose transcription is increased following leptin treatment of target cells (Elmquist et al., 1997, Endocrinology 138, 839-842). […]

[8] = end of the 3-month treatment period
[9] = female ob/ob mice, subcutaneous pellets, 3-month treatment

C[C@]12CC[C@@H]3c4ccc(O)cc4CC[C@H]3[C@@H]1CC[C@@H]2O [17 β-estradiol]
increase in bone volume, treated ob/ob mice compared to estradiol-treated wild-type mice [1, 8]: 50%
increase in bone volume, treated ob/ob mice compared to untreated wild-type mice [1, 8]: 3 fold
correction of hypogonadism (aspect of uteri, levels of estradiol in blood) [1, 9]: correction of the uterus atrophy
high bone mass phenotype compared to placebo treated ob/ob mice [1, 9]: further increase of the high bone mass phenotype
osteoclast number [1, 9]: normalization of the osteoclast number
correction of hypogonadism (aspect of uteri, levels of estradiol in blood) ([1]; female ob/ob mice, subcutaneous pellets, 3-month treatment, listed as estradiol): corrected their hypogonadism
bone trabeculae, histological analysis of vertebrae ([1]; treated wt and even more treated ob/ob mice): significant increase in bone trabeculae

leptin: endogenous polypeptide product of an ob gene; polypeptide hormone (Sigma)
bone appearance, classical histology [2]: regained a normal appearance
bone formation rates [2]: significantly decreased
bone volume [2]: significantly decreased
number of trabeculae [2]: fewer trabeculae
trabeculae thickness [2]: significantly decreased
effect of the dosage when administered systemically [3]: no effect
expression of Tis11 and c-fos [4]: not
leptin in the serum [5]: No leptin
collagen synthesis (van Gieson staining) [6]: No difference; also recorded: No effect
matrix mineralization / mineralization nodule formation (von Kossa staining) [6]: No difference; also recorded: No effect
Stat3 phosphorylation, several doses ([7]; several doses, physiologic and supraphysiologic): failed to induce

B1: Oncostatin-M: positive control that induces Stat3 phosphorylation and immediate early gene expression in osteoblasts (protein, UniProt P13725 26-221, looked up)
Oncostatin-M: AAIGSCSKEYRVLLGQLQKQTDLMQDTSRLLDPYIRIQGLDVPKLREHCRERPGAFPSEETLRGLGRRGFLQTLNATLGCVLHRLADLEQRLPKAQDLERSGLNIEDLEKLQMARPNILGLRNNIYCMAQLLDNSDTAEPTKAGRGASQPPTPTPASDAFQRKLEGCRFLHGYHRFMHSVGRVFSKWGESPNRSRR
expression of Tis11 and c-fos [4]: quickly and transiently activated
Stat3 phosphorylation ([7]; primary osteoblasts from wild-type mice, serum-starved): did induce
